Results: patent US10875799B2, “System and method for generation of point of use reactive oxygen species” (Clean Chemistry, Inc., priority 2012, dated 2020)

Legend:
[1] = Methylene blue (MB) dye oxidation / color removal test; conditions: hydrogen peroxide alone, after several days
[2] = cited from earlier work

Q: For `OO` [hydrogen peroxide], which “effect on methylene blue” value [1] is on record?
A: no visible effect

Q: And the pKa [2]?
A: 11.6

Q: Which pKa [2] does the source give for `CC(=O)OO` [peroxyacetic acid] here?
A: 8.3

Q: For `[O]O` [superoxide], which pKa [2] is on record?
A: 4.8
